The data set can be described thus: Loss of MK-7 on direct compression into tablets with calcium or magnesium excipients. Format: physicochemical. Particulars: directly compressed with excipients such as calcium or magnesium. The text has this: However, vitamins K1 and K2 degrade when formulated in a conventional dosage form, such as a tablet, in the presence of mineral salts, in particular calcium or magnesium salts. Moreover, during formulation of the dosage form, there is a still yet further opportunity for degradation. When directly compressed along with some excipients in a tablet such as calcium or magnesium, a serious reduction in the amount of MK-7 present after tableting can be observed, such as up to 30% reduction in MK-7. As MK-7 is expensive, that is not an acceptable loss on formulation. The MK-7 degradation appears to be accelerated in the presence of calcium or magnesium. As calcium and magnesium are valuable minerals, it is desirable to be able to formulate vitamins in general and MK-7 in particular with calcium and magnesium.

Regarding `CC(C)=CCC/C(C)=C/CC/C(C)=C/CC/C(C)=C/CC/C(C)=C/CC/C(C)=C/CC/C(C)=C/CC1=C(C)C(=O)c2ccccc2C1=O` [MK-7], the “reduction in MK-7 after tableting” value is “up to 30%”.
